According to the CheMixHub viscosity set:

Test: xn = mol fraction of the nth substance listed

CCCN(CCC)CCC + CCC(=O)O
viscosity [mPa·s], 101 kPa
Conditions | x2 = 0.1 | x2 = 0.4 | x2 = 0.5 | x2 = 0.6 | x2 = 0.7 | x2 = 0.75 | x2 = 0.775 | x2 = 0.8 | x2 = 0.9
293.15 K | 0.734 | 4.43 | 5.62 | 5.97 | 13.95 | 20.55 | 23.47 | 23.75 | 8.57
298.15 K | 0.664 | 3.85 | 5.12 | 5.22 | 11.2 | 16.25 | 18.67 | 18.96 | 7.5
303.15 K | 0.589 | 3.5 | 4.35 | 4.5 | 9.2 | 13.02 | 15 | 15.59 | 6.47
308.15 K | 0.54 | 3.1 | 3.75 | 3.8 | 7.7 | 10.85 | 12.22 | 12.77 | 5.81
313.15 K | 0.51 | 2.8 | 3.62 | 3.35 | 6.52 | 9 | 10.32 | 10.76 | 5.04
318.15 K | 0.499 | 2.45 | 3.03 | 3 | 5.57 | 7.62 | 8.68 | 8.96 | 4.4
323.15 K | 0.464 | 2.22 | 2.75 | 2.67 | 4.82 | 6.46 | 7.44 | 7.72 | 4.05

CCN(CC)c1ccccc1 + CCC(=O)O
Conditions | viscosity [mPa·s]
323.15 K, 101 kPa, x2 = 0.5177 | 1.865

ClCCCCl + CCC(C)(C)O
viscosity [mPa·s], 101 kPa
Conditions | x1 = 0.101 | x1 = 0.2021 | x1 = 0.3082 | x1 = 0.4082 | x1 = 0.5066 | x1 = 0.608 | x1 = 0.7071 | x1 = 0.808 | x1 = 0.9003
298.15 K | 2.779 | 1.877 | 1.393 | 1.18 | 1.061 | 0.9826 | 0.9381 | 0.9128 | 0.9114
313.15 K | 1.508 | 1.164 | 0.9559 | 0.8566 | 0.7978 | 0.7579 | 0.7469 | 0.7328 | 0.7431

CCCN(CCC)CCC + CCC(C)O
303.15 K, 101 kPa
Conditions | viscosity [mPa·s]
x1 = 0.009049 | 2.448
x1 = 0.02003 | 2.423
x1 = 0.02982 | 2.4
x1 = 0.04 | 2.379
x1 = 0.05207 | 2.352
x1 = 0.06138 | 2.332
x1 = 0.06704 | 2.317
x1 = 0.07865 | 2.291
x1 = 0.09178 | 2.264

ClCCCCl + CCC(C)O
viscosity [mPa·s], 101 kPa
Conditions | x1 = 0.1002 | x1 = 0.2005 | x1 = 0.3002 | x1 = 0.4005 | x1 = 0.4986 | x1 = 0.6027 | x1 = 0.6951 | x1 = 0.8051 | x1 = 0.9113
298.15 K | 2.23 | 1.683 | 1.346 | 1.134 | 1.031 | 0.9587 | 0.9141 | 0.894 | 0.8997
313.15 K | 1.369 | 1.103 | 0.9402 | 0.8403 | 0.7841 | 0.7468 | 0.7254 | 0.7214 | 0.7371

Cc1ccc(C(C)C)c(O)c1 + CCCCCCCC(=O)O
100 kPa, x2 = 0.579
Conditions | viscosity [mPa·s]
293.15 K | 9.71
298.15 K | 8
303.15 K | 6.68
308.15 K | 5.65
313.15 K | 4.83
318.15 K | 4.17
323.15 K | 3.64

Cc1ccc(C(C)C)c(O)c1 + CCCCCCCCCC(=O)O
100 kPa, x2 = 0.5
Conditions | viscosity [mPa·s]
293.15 K | 15.28
298.15 K | 12.16
303.15 K | 9.86
308.15 K | 8.12
313.15 K | 6.78
318.15 K | 5.74
323.15 K | 4.91

Cc1ccc(C(C)C)c(O)c1 + CCCCCCCCCCCC(=O)O
100 kPa, x2 = 0.45
Conditions | viscosity [mPa·s]
303.15 K | 12.43
308.15 K | 10.12
313.15 K | 8.37
318.15 K | 7.01
323.15 K | 5.95

Cc1ccc(C(C)C)c(O)c1 + CCCCCCCCCCCCCC(=O)O
100 kPa, x2 = 0.25
Conditions | viscosity [mPa·s]
313.15 K | 8.69
318.15 K | 7.16
323.15 K | 5.98

Cc1ccc(C(C)C)c(O)c1 + CCCCCCCCCCCCCCCC(=O)O
100 kPa, x2 = 0.2
Conditions | viscosity [mPa·s]
313.15 K | 9.21
318.15 K | 7.54
323.15 K | 6.29

Cc1ccc(C(C)C)c(O)c1 + CCCCCCCCCCCCCCCCCC(=O)O
100 kPa, x2 = 0.1
Conditions | viscosity [mPa·s]
318.15 K | 6.88
323.15 K | 5.68

CCN(CC)c1ccccc1 + CCCCCCCCO
viscosity [mPa·s], 100 kPa
Conditions | x1 = 0.1141 | x1 = 0.2548 | x1 = 0.3537 | x1 = 0.4726 | x1 = 0.5725 | x1 = 0.6945 | x1 = 0.7795 | x1 = 0.8584 | x1 = 0.9317
303.15 K | 5.389 | 4.382 | 3.806 | 3.235 | 2.842 | 2.446 | 2.212 | 2.016 | 1.847
308.15 K | 4.42 | 3.49 | 2.987 | 2.519 | 2.221 | 1.947 | 1.8 | 1.684 | 1.587
313.15 K | 3.684 | 2.854 | 2.428 | 2.056 | 1.837 | 1.653 | 1.56 | 1.487 | 1.421
318.15 K | 3.135 | 2.356 | 1.976 | 1.667 | 1.503 | – | 1.339 | 1.305 | 1.271

CCN(CC)c1ccccc1 + CCCCCCCO
viscosity [mPa·s], 100 kPa
Conditions | x1 = 0.1216 | x1 = 0.2426 | x1 = 0.3349 | x1 = 0.4641 | x1 = 0.5612 | x1 = 0.6524 | x1 = 0.7356 | x1 = 0.8144 | x1 = 0.9141
303.15 K | 4.25 | 3.593 | 3.178 | 2.706 | 2.425 | 2.21 | 2.049 | 1.923 | 1.792
308.15 K | 3.658 | 3.095 | 2.735 | 2.323 | 2.079 | 1.895 | 1.763 | 1.665 | 1.577
313.15 K | 3.122 | 2.622 | 2.308 | 1.96 | 1.76 | 1.617 | 1.52 | 1.455 | 1.405
318.15 K | 2.671 | 2.129 | 1.826 | 1.535 | 1.398 | 1.319 | 1.278 | 1.257 | 1.243
